The source of these data is patent US10709724B2, “Methods of treating mitochondrial dysfunction” (Ecole Polytechnique Federale de Lausanne (EPFL), priority 2011, dated 2020).

The subject of experiment [1] is AMP-activated protein kinase (AMPK). Description: AMPK activity (ACC phosphorylation) in C2C12 myotubes. The conditions noted are these: 24 hrs. Type of experiment: cell-based. The protocol:
Immunoprecipitation, SDS-PAGE, Western Blotting. Cells were lysed in lysis buffer (50 mM Tris, […], EDTA 1 mM, NP40 1%, nicotinamide 5 mM, Na-butyrate 1 in M, protease inhibitors pH7.4). Proteins were separated by SDS-PAGE and transferred onto nitrocellulose membranes. The origin of the primary and secondary antibodies used can be found as supplemental experimental procedures. Reactions were developed by enhanced chemiluminescence (Amersham, Little Chalfont, UK), PGC-1α, FOXO1 and Ndufa9 acetylation levels were analyzed by immunoprecipitation from cellular or nuclear lysates of tissues with anti-PGC-1α (Millipore), anti-FOXO1 (Cell Signaling, Danvers, Mass., USA) and anti-Ndufa9 (Abcam) antibody followed by Western blot using an acetyl-lysine antibody (Cell Signaling) that was normalized to total PGC-1a/FOXO1/Ndufa9 levels (Lagouge et al., 2006; Rodgers et al., 2005). In HEK293T cells HA-tagged PGC-1α was overexpressed and was immunoprecipitated using an anti-HA. […] All blots were quantified by densitometry using ImageJ software. […] PGC-1 acetylation was determined using PGC-1 immunoprecipitates from 2 mg of protein extracts, as described in Canto et al. (Canto et al., AMPK regulates energy expenditure by modulating NAD+ metabolism and SIRT1 activity. Nature 458, 1056 (2009)).

The test system of experiment [2] is C57Bl/6J male mice. Description: PJ34 treatment of mice (5 days). In kind it is in vivo. The conditions noted are these: 10 mg/kg i.p. twice a day. The procedure:
Animal Experiments. Male PARP-1^+/+ and PARP-1^−/− mice on a pure C57Bl/6J background (Menissier-de Murcia et al., 1997) were used. Mice were housed separately, had ad libitum access to water and standard rodent chow (10 kcal % of fat, Safe, Augy, France) or to a high calorie, high fat diet (60 kcal % of fat, Research. Diets, New Brunswick, N.J., USA), and were kept under a 12 h dark-light cycle. In other animal experiments, 8 weeks-old male C57Bl/6J mice were purchased from Charles River and powder chow (D12450B) and high fat (D12492) diets were from Research Diets Inc (New Brunswick, N.J., USA). 80 ml of water per kg of powder CD were used to make food pellets. 40 ml of water per kg of powder HFD were used to make food pellets. For NR, NMN and NA supplemented diets, the appropriate amount of these compounds was added to the water used to create the pellets, taking into account the differences in the daily intake of each diet. Mice were housed separately, had ad libitum access to water and food and were kept under a 12 h dark-light cycle. Mice were fed with homemade pellets from 10 weeks of age. To make the pellets, the powder food was mixed with water (vehicle) or with NR. All animal experiments were carried out according to local national and EU ethical guidelines. To monitor body weight, mice were weighed and the food consumption was measured each week on the same day. In case of PJ34 treatment, mice received each 12 h (at 7:00 and 19:00) 10 mg/kg PJ34 by intraperitoneal injection for 5 continuous days. In all studies animals were killed (at 14:00) either after CO2 inhalation or cervical dislocation after 6 h of fasting (starting at 8:00), and tissues were collected and processed as specified below. Oral glucose tolerance test, intraperitoneal insulin tolerance test, free fatty acid (FFA) and triglycerides were determined as described (Lagouge et al., 2006). Plasma insulin and was determined in heparinized plasma samples using specific ELISA kits (Mercodia). Blood samples were collected in heparinized tubes and plasma was isolated after centrifugation. Plasma parameters were measured using a Cobas c111 (Roche Diagnostics). Thermoadaptation was performed as described (Lagouge et al., 2006). We measured O2 consumption, CO2 production, and spontaneous locomotor activity in an open circuit indirect calorimetry system (Sabre systems, Las Vegas, Nev., USA) over 24-48 has described (Dali-Youcef et al., 2007; Lagouge et al., 2006; Watanabe et al., 2006). […] The respiratory quotient was the ratio of CO2 production over O2 consumption. During actimetry, beamline crossings were summarized each 15 minutes. […] Euglycemic-hyperinsulinemic clamps were performed in PARP-1^−/− and ^+/+ male mice (n=4 mice per genotype; age=4 months) exactly as previously described (Feige et al, 2008).
mRNA and mtDNA Analysis. Total RNA was prepared using TRIzol (Invitrogen) according to the manufacturer's instructions. RNA was treated with DNase, and 2 μg of RNA was used for reverse transcription (RT). cDNA was purified on QIAquick PCR cleanup columns (Qiagen, Valencia, Calif., USA). 50× diluted cDNA was used for RT-quantitative PCR (RT-VCR) VCR) reactions (Bai et al., 2007). The RT-qPCR reactions were performed using the Light-Cycler system (Roche Applied Science) and a qPCR Supermix (Qiagen) with the primers for mice summarized in Table 1 and 4, and with the primers for worms summarized on Table 7. mtDNA quantification was performed as described (Lagouge et al., 2006) with the primers indicated in Table 2 and 5.
Immunoprecipitation, SDS-PAGE, Western Blotting. Cells were lysed in lysis buffer (50 mM Tris, […], EDTA 1 mM, NP40 1%, nicotinamide 5 mM, Na-butyrate 1 in M, protease inhibitors pH7.4). Proteins were separated by SDS-PAGE and transferred onto nitrocellulose membranes. The origin of the primary and secondary antibodies used can be found as supplemental experimental procedures. […]

The test system of experiment [3] is C57Bl/6J mice. Description: Hyperinsulinemic-euglycemic clamp in CD and CD-NR mice. Type of experiment: in vivo. The conditions noted are these: 4 weeks of treatment. The protocol:
Hyperinsulinemic-euglycemic clamps were performed as described (Lagouge et al., 2006).

Molecules are shown by their SMILES.

Regarding `CN(C)CC(=O)Nc1ccc2[nH]c(=O)c3ccccc3c2c1` [PJ34], the “AMPK activity (ACC phosphorylation levels)” value in experiment [1] is listed as “does not alter AMPK activity”. For the same compound, in experiment [2], the “Dio2 mRNA in BAT” value is “significantly induced”; the “Myoglobin mRNA levels in muscle” value is given as “increase in Myoglobin mRNA levels”; the “NAD+ levels in BAT and muscle” value is listed as “edged up in PJ34-treated animals, even though the increase was only statistically significant in muscle”; the “PARP activity in BAT and muscle” value is reported as “robustly decrease PARP activity”. For the same compound, in experiment [2], the “PGC-1α acetylation levels in BAT and muscle” value is reported as “reduced PGC-1α acetylation levels”; the “mitochondrial gene expression in BAT and muscle (Ndufa2, Ndufa5, UCP2, UCP3)” value was “tendency to a higher expression of a number of mitochondrial genes”. In experiment [2] (vehicle 1.21±0.08, p=0.08), the triglycerides came out at 1.11 ± 0.04 mM. Besides, the “free fatty acid levels” value in experiment [2] (vehicle 1.59±0.06, p=0.03) is on record as 1.44±0.03 mEq/L. In experiment [2] (vehicle 9.94±0.28, p=0.05), this compound had a blood glucose of 9.19 ± 0.58 mM.
Regarding `NC(=O)c1ccc[n+]([C@@H]2O[C@H](CO)[C@@H](O)[C@H]2O)c1` [NR, nicotinamide riboside], in experiment [3], the “glucose infusion rate to maintain euglycemia, vs vehicle” value is reported as roughly 2 fold and the “insulin-induced muscle glucose uptake” value is listed as “very marked increase”.
